Patent publication US12037324B2, “Biarylmethyl heterocycles” (Université de Montréal, priority 2016, dated 2024)

Key:
[1] = biological target: T1, hAT1R (Homo sapiens, UniProt P30556); test: BRET β-arrestin2 biosensor assay, higher receptor expression (hAT1R 5 ng/well), HEK293 cells; assay type: cell-based; conditions: for EC50: High AT1R Expression
T1 sequence (P30556 1-359): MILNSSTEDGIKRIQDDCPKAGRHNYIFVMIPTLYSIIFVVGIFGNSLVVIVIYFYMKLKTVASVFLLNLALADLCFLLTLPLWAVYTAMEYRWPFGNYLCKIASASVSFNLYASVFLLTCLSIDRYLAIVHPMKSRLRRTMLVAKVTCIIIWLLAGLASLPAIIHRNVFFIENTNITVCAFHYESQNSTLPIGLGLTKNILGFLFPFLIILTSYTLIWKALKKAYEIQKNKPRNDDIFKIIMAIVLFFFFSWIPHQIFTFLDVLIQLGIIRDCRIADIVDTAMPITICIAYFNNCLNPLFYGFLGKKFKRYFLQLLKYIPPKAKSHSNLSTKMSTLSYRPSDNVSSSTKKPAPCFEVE

[2] = biological target: T2, AGTR1 (Homo sapiens, UniProt P30556); test: DiscoveRx β-arrestin2 recruitment assay (enzyme complementation, Pathunter CHO-K1 AGTR1 β-arrestin cell line); assay type: cell-based; conditions: DiscoveRx β-arrestin2 recruitment
T2 construct: host or cells: Pathunter CHO-K1 AGTR1 β-arrestin cell line (CHO-K1)
T2 sequence (P30556 1-359): T1 sequence (P30556 1-359)
Method in brief: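 Chemiluminescent enzyme-complementation read-out of β-arrestin2 recruitment to AGTR1 in engineered CHO-K1 cells after 90 min compound exposure at 37° C. Values are 4-parameter logistic EC50s in agonist mode, IC50s in antagonist mode, with efficacy relative to the maximal All response.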

[3] = biological target: T1, hAT1R; test: BRET Gq biosensor assay, agonist response, HEK293 cells; assay type: cell-based; conditions: section of the 42nd table directly before the BRET P63 section
Method in brief: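 Agonist EC50 derived from a 4-parameter fit of BRET2 ratio (GFP 515 nm/Rluc 410 nm), scaled between unstimulated control and maximal AngII response. Readings taken 5 min after compound addition at room temperature, with 2 μM coelenterazine, in HEK293 cells expressing hAT1R, Gαq-Rluc, Gβ1 and GFP-Gγ1 (transfected two days earlier).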

[4] = biological target: T1, hAT1R; test: cell-based; conditions: section of the 42nd table ending at r951, example numbering restarts after the DiscoveRx section; read-out: β-arrestin2 EC50
[5] = biological target: T1, hAT1R; test: cell-based; conditions: agonist mode; for EC50: read-out: BRET P63 EC50

Row | SMILES | BRET β-Arrestin2 High AT1R Expression Ymax (%) [1] [%] | EC50 [1] [µM] | EC50 [2] [µM] | DiscoveRx β-arrestin2 Ymax (%) ([2]; maximal response) | EC50 [3] [µM] | EC50 [4] [µM] | EC50 [5] [µM] | DiscoveRx β-arrestin2 Ymax (%) [2] [%] | BRET P63 Ymax [5] [%]
1 | CCCCc1nc(Cl)c(C(=O)O)n1Cc1ccc(-c2cc(-c3ccccc3)ccc2-c2noc(=O)[nH]2)cc1 [Example 404, 2-butyl-4-chloro-1-((6′-(5-oxo-4,5-dihydro-1,2,4-oxadiazol-3-yl)-[1,1′:3′,1″-terphenyl]-4-yl)methyl)-1H-imidazole-5-carboxylic acid] | 89.7 | 0.0143 | 0.0096 | 38.6 | 0.0704 | 0.0694 | > 10 |  | 
2 | CCCCc1nc(Cl)c(C(=O)O)n1Cc1ccc(-c2cc(-c3ccccc3)ccc2C(=O)O)cc1 [Example 410, 2-butyl-1-((6′-carboxy-[1,1′:3′,1″-terphenyl]-4-yl)methyl)-4-chloro-1H-imidazole-5-carboxylic acid] | 69.7 | 0.0821 | 0.0269 | 41.9 | > 100 | 0.0982 | > 10 |  | 
3 | CCCCc1nc(Cl)c(C(=O)O)n1Cc1ccc(-c2cc(C3CCCCC3)ccc2-c2nn[nH]n2)cc1 [Example 424, 2-butyl-4-chloro-1-((5′-cyclohexyl-2′-(2H-tetrazol-5-yl)-[1,1′-biphenyl]-4-yl)methyl)-1H-imidazole-5-carboxylic acid] | 76.7 | 0.0678 | 0.0993 | 28.6 | 2.79 | 0.0353 | > 100 |  | 
4 | CCCCC(=O)N(Cc1ccc(-c2cc(-c3cc(C)ccn3)ccc2-c2nn[nH]n2)cc1)[C@H](C(=O)O)C(C)C [Example 445] | 91.3 | 0.0098 | 0.0377 |  | 0.14 | 0.036 | 0.103 | 61.2 | 24.0
